Patent US8658638B2, “Mineralocorticoid receptor antagonist and methods of use” (priority 2009, dated 2014)

Legend:
[1] = target: T1, human GR (glucocorticoid receptor) (Homo sapiens, UniProt P04150); test: Steroid nuclear hormone receptor binding assay, GR; conditions: [3H]-dexamethasone, HEK293 lysate overexpressing human GR
T1 construct: expressed in transfected cells; host or cells: HEK293 (293-GR lysate)
T1 sequence (P04150 1-777): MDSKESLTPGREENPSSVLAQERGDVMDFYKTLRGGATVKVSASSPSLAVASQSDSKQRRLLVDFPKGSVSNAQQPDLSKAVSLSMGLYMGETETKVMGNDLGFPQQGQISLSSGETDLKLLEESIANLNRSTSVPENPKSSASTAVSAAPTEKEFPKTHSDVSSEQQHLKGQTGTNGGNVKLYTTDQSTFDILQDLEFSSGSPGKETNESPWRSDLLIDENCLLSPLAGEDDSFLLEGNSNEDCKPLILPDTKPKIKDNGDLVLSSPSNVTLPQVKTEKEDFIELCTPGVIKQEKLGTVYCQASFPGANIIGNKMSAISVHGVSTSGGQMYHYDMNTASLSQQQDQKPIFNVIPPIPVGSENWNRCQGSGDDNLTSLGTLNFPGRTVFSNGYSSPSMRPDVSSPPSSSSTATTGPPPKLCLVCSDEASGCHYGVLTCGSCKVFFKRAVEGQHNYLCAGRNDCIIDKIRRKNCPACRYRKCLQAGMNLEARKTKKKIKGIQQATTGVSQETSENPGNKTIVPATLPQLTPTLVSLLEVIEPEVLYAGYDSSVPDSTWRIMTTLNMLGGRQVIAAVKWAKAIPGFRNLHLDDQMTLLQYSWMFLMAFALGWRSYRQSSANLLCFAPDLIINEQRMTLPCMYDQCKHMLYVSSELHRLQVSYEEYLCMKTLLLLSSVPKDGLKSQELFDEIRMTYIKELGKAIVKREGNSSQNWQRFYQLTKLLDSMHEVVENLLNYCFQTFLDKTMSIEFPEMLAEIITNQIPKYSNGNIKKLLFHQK
Experimental: Cell lysates from human embryonic kidney HEK293 cells overexpressing human MR (mineralocorticoid receptor), GR (glucocorticoid receptor), AR (androgen receptor), or PR (progesterone receptor) are used for receptor-ligand competition binding assays to determine Ki values.
Briefly, steroid receptor competition binding assays are run in a buffer containing 20 mM HEPES buffer (pH=7.6), 0.2 mM EDTA, 75 mM NaCl, 1.5 mM MgCl2, 20% glycerol, 20 mM sodium molybdate, 0.2 mM DTT (dithiothreitol), 20 μg/mL aprotinin and 20 μg/mL leupeptin (assay buffer). Typically, steroid receptor binding assays include radio-labeled ligands, such as 0.25 nM [^3H]-aldosterone for MR binding, 0.7 nM [^3H]-dexamethasone for GR binding, 0.36 nM [^3H]-methyltrienolone for AR binding, and 0.29 nM [^3H]-methyltrienolone for PR binding, and either 20 μg 293-MR lysate, 20 μg 293-GR lysate, 22 μg 293-AR lysate, or 40 μg 293-PR lysate per well. Assays are typically run in 96-well format. Competing test compounds are added at various concentrations ranging from about 0.01 nM to 10 μM. Non-specific binding is determined in the presence of 500 nM aldosterone for MR binding, 500 nM dexamethasone for GR binding, or 500 nM methyltrienolone for AR and PR binding. […] After an incubation of 2 hours, plates are read in a Wallac Microbeta counter. […]

[2] = system: uni-nephrectomized Sprague Dawley rats; test: In vivo model of aldosterone mediated renal disease; conditions: 10 mg/kg/day x 28 days, oral gavage, aldosterone infusion, 6% salt diet, rat
Experimental: Male uni-nephrectomized Sprague Dawley rats (240-280 g) are housed individually with ad lib house water and rodent 5001 diet for one week. After acclimation, baseline 24 h urine samples are collected and analyzed for total urine protein and creatinine. Animals are randomized via body weight and baseline urine protein into study groups. Baseline serum is taken by tail-clip and analyzed for blood urea nitrogen (BUN), creatinine, and electrolytes. After baseline samples are taken, all rats with the exception of the control group are maintained on a diet containing 6% salt, and drinking water containing 0.3% KCl throughout the study duration. […] Alza mini-pumps to deliver 2.5 μl/h×28 days of d-aldosterone in 0.01% DMSO at 0.75 μg/h, s.c. are implanted in non-control animals (e.g Test Compound group and Vehicle only group) under isoflourane anesthesia. Test compound, in a vehicle comprising 1% carboxy methylcellulose (CMC)/0.25% polysorbate 80, or vehicle alone, is then administered by once daily oral gavage (10 mL/kg) beginning the day after aldosterone implantation. Repeat urine samples are collected after 2 and 4 weeks of compound or vehicle alone administration and analyzed for total urine protein and creatinine. At study termination, pharmacokinetic samples are obtained at 8 timepoints (0.5, 1, 2, 3, 6, 8, 12 and 24 h). […]

Ki [1]: ~669 nM
Structure (SMILES): O=c1[nH]c2cc(/C=C3\c4ccccc4COc4cc(F)ccc43)ccc2n1[C@@H]1C[C@@H]2COCCN2C1 [Compound (I), 5-((E)-(3-fluorodibenzo[b,e]oxepin-11(6H)-ylidene)methyl)-1-((7R,8aR)-hexahydro-1H-pyrrolo[2,1-c][1,4]oxazin-7-yl)-1H-benzo[d]imidazol-2(3H)-one]
reduction of urinary protein excretion compared to vehicle treated animals [2]: about 60%
